Data reported in US10214508B2, “Nitrogen-containing heterocyclic compound” (Takeda Pharmaceutical Company Limited, priority 2014, dated 2019).

What follows are compounds tested against T1, human M1 receptor (hCHRM1) (Homo sapiens, UniProt P11229) (assay: Measurement of M1 receptor positive allosteric modulator (M1PAM) activity, calcium fluorescence (FLIPRtetra)). Conditions: 10 μM test compound with acetylcholine at EC20 (final 0.6-0.8 nM); 100% = acetylcholine 1 μM, 0% = DMSO; CHO-K1 cells expressing hCHRM1.
T1 construct: expressed in transfected cells
T1 sequence (P11229 1-460): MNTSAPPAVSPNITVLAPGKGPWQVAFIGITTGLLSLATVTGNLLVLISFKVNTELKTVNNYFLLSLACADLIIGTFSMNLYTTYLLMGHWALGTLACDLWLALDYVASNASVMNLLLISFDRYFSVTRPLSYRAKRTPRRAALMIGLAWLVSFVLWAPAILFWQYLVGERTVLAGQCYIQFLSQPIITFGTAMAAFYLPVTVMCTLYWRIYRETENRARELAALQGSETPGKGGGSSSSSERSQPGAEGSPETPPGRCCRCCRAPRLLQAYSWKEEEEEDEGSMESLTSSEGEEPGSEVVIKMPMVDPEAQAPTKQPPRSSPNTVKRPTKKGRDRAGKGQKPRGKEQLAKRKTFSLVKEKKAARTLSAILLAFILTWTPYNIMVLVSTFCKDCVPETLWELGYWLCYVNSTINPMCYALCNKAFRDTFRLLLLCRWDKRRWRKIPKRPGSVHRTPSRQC
Format: cell-based
Summary of the method: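 CHO-K1 cells stably expressing hM1 were Fluo-4-loaded; compound added with acetylcholine at EC20 (0.6-0.8 nM final), calcium fluorescence read 1 min on FLIPRtetra. Activity scaled between DMSO (0%) and 1 μM acetylcholine (100%); inflection point of concentration–response reported as IP.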

SMILES | activity (%) at 10 μM
Cc1nc(C(=O)N[C@H]2COCC[C@@H]2O)cc(Cc2ccc(-c3ccn(C)n3)cc2)c1C [Example 82, 1,5-anhydro-2,4-dideoxy-2-(((5,6-dimethyl-4-(4-(1-methyl-1H-pyrazol-3-yl)benzyl)pyridin-2-yl)carbonyl)amino)-L-threo-pentitol] | 103%
COc1ccc(Cc2cc(C(=O)N[C@H]3COCC[C@@H]3O)nc(C)c2C)cc1 [Example 83, 1,5-anhydro-2,4-dideoxy-2-(((4-(4-methoxybenzyl)-5,6-dimethylpyridin-2-yl)carbonyl)amino)-L-threo-pentitol] | 103%
Cc1ccc(Cc2cc(C(=O)N[C@H]3CCCC[C@@H]3O)nc(C)c2C)cn1 [Example 84, N-((1S,2S)-2-hydroxycyclohexyl)-5,6-dimethyl-4-((6-methylpyridin-3-yl)methyl)pyridine-2-carboxamide] | 93%
Cc1nc(C(=O)N[C@H]2COCC[C@@H]2O)cc(Cc2ccc(Cl)nc2)c1C [Example 85, 1,5-anhydro-2-(((4-((6-chloropyridin-3-yl)methyl)-5,6-dimethylpyridin-2-yl)carbonyl)amino)-2,4-dideoxy-L-threo-pentitol] | 99%
Cc1nc(C(=O)N[C@H]2COCC[C@@H]2O)cc(Cc2ccc(-c3ccn(C)n3)nc2)c1C [Example 86, 1,5-anhydro-2,4-dideoxy-2-(((5,6-dimethyl-4-((6-(1-methyl-1H-pyrazol-3-yl)pyridin-3-yl)methyl)pyridin-2-yl)carbonyl)amino)-L-threo-pentitol] | 95%
COc1nc(C(=O)N[C@H]2COCC[C@@H]2O)cc(Cc2ccc(-c3ccn(C)n3)cc2)c1C [Example 87, 1,5-anhydro-2,4-dideoxy-2-(((6-methoxy-5-methyl-4-(4-(1-methyl-1H-pyrazol-3-yl)benzyl)pyridin-2-yl)carbonyl)amino)-L-threo-pentitol] | 92%
COc1nc(C(=O)N[C@H]2CCCC[C@@H]2O)cc(Cc2ccc(-c3ccn(C)n3)cc2)c1C [Example 88, N-((1S,2S)-2-hydroxycyclohexyl)-6-methoxy-5-methyl-4-(4-(1-methyl-1H-pyrazol-3-yl)benzyl)pyridine-2-carboxamide] | 99%
COc1nc(C(=O)N[C@H]2COCC[C@@H]2O)cc(Cc2ccc(-c3ccn(C)n3)cc2)c1C [Example 89, 1,5-anhydro-2,4-dideoxy-2-(((6-methoxy-5-methyl-4-(4-(1-methyl-1H-pyrazol-3-yl)benzyl)pyridin-2-yl)carbonyl)amino)-L-threo-pentitol] | 101%
COc1nc(C(=O)N[C@H]2CCC[C@@H]2O)cc(Cc2ccc(-c3ccn(C)n3)cc2)c1C [Example 90, N-((1S,2S)-2-hydroxycyclopentyl)-6-methoxy-5-methyl-4-(4-(1-methyl-1H-pyrazol-3-yl)benzyl)pyridine-2-carboxamide] | 106%
COc1nc(C(=O)N[C@H]2CCCC[C@@H]2O)cc(Cc2ccc(-n3cccn3)cc2)c1C [Example 91, N-((1S,2S)-2-hydroxycyclohexyl)-6-methoxy-5-methyl-4-(4-(1H-pyrazol-1-yl)benzyl)pyridine-2-carboxamide] | 98%
COc1nc(C(=O)N[C@H]2COCC[C@@H]2O)cc(Cc2ccc(-n3cccn3)cc2)c1C [Example 92, 1,5-anhydro-2,4-dideoxy-2-(((6-methoxy-5-methyl-4-(4-(1H-pyrazol-1-yl)benzyl)pyridin-2-yl)carbonyl)amino)-L-threo-pentitol] | 99%
COc1nc(C(=O)N[C@H]2CCC[C@@H]2O)cc(Cc2ccc(-n3cccn3)cc2)c1C [Example 93, N-((1S,2S)-2-hydroxycyclopentyl)-6-methoxy-5-methyl-4-(4-(1H-pyrazol-1-yl)benzyl)pyridine-2-carboxamide] | 105%
